Assay results as given in article PMC3547949, “The Immunosuppressive Agent Mizoribine Monophosphate Is an Inhibitor of the Human RNA Capping Enzyme” (PLoS ONE, 2013).
Like-named read-outs stand apart in the source and are kept apart here.

Tests used:
[1] = test system: HEK 293T cells; assay: Inhibition of mRNA cap formation in cells (firefly luciferase reporter); conditions: 40 µM or 120 µM mizoribine, all cell lines, versus untreated cells
[2] = set-up: method as in PMID 19336917, PMID 15773958, PMID 11896891, PMID 12036371; conditions: cited from earlier work
[3] = target: T1, HCE (Homo sapiens, UniProt O60942); assay: MZP transfer onto an acceptor RNA (cap donor substrate test); type: biochemical; conditions: 2 mM MZP, 2 h 37°C
T1 construct: full-length bifunctional HCE protein (amino acid 1–597); 6-His (N); made in house; host or cells: Escherichia coli BL21(DE3), pET28a
T1 sequence (O60942 whole entry): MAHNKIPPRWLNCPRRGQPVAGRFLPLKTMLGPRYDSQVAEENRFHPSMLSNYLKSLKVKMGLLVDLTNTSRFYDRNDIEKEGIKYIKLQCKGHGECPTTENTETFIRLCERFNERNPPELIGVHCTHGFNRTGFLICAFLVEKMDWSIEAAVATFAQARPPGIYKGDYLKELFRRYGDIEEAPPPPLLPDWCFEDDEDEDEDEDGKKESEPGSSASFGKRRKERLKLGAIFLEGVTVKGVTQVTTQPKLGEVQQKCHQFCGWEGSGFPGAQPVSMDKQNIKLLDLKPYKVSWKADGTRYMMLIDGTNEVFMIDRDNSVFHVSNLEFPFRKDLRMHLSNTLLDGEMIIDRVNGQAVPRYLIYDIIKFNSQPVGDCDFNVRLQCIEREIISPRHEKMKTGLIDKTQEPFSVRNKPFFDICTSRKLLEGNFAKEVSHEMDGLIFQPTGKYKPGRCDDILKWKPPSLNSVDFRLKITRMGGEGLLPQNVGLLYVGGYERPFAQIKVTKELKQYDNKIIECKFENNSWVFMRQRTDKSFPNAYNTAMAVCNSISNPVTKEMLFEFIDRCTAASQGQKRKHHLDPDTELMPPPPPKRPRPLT
Protocol: Reaction mixtures containing 50 mM Tris-HCl, pH 7.5, 5 mM MgCl2, 500 µM DTT, 0.7 ng/µl pyrophosphatase (Roche), and 1 U of RNAse Out (Invitrogen), 1 µM of 5′-diphosphate RNA substrate (32 nt) harboring a α-^32P-radiolabeled 5′-phosphate, 0.2 µM HCE were incubated in absence or in presence of 2 mM GTP or MZP for 2 h at 37°C. The reaction pH was adjusted to 5.2 with 50 mM NaOAc followed by the addition of 5 µg of Nuclease P1 and incubation at 37°C for 60 min. The digestion were further adjusted with 50 mM Tris-HCl to pH 8.0, and digested with 1 U of alkalie phosphatase (Roche) for 30 min at 37°C. The reaction products were analyzed by thin-layer chromatography (TLC) on a polyethyleneimine-cellulose plate developed with 0.4 M ammonium sulfate.
Supplementary file pone.0054621.s002.tif: Figure S2 MZP as a potential cap donor substrate for HCE. A 5′-diphosphate acceptor RNA initiating with a [α-^32P] guanosine was incubated in absence (lane 1) or in presence of MZP (lane 2) or GTP (lane 3) and HCE. The capping reaction was sequentially submitted to nuclease P1 then alkaline phosphatase prior to analysis by TLC on a polyethyleneimine-cellulose plate. An autoradiogram of the plate is shown. The locations of the origin and GpppG product are indicated by arrows (right). (TIF) Click here for additional data file.

[4] = target: T2, A103R (Paramecium bursaria Chlorella virus 1, UniProt Q84424); type: biochemical, Chlorella virus (PBCV-1)
T2 sequence (Q84424 whole entry, stated change not applied): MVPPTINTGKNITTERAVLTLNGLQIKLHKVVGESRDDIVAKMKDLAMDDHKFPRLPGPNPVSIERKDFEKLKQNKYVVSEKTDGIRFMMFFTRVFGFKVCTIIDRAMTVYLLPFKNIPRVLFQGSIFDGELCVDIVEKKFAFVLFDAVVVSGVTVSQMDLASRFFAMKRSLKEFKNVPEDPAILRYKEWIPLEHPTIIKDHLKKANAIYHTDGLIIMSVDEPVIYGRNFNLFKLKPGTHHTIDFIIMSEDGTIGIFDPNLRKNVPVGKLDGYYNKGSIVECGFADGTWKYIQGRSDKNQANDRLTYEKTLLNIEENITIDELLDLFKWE

[5] = target: T3, D1R (Vaccinia virus, UniProt P04298); assay: Complete GTase reaction, vaccinia virus GTase; type: biochemical
[6] = target: T4, HCE RTase activity (Homo sapiens, UniProt O60942); assay: RNA triphosphatase (RTase) assay; type: biochemical; conditions: MZP up to 10 mM, full-length HCE
T4 construct: full-length bifunctional HCE protein (amino acid 1–597); 6-His (N); made in house; host or cells: Escherichia coli BL21(DE3), pET28a
T4 sequence (O60942 whole entry): as the sequence (O60942 whole entry) above
Protocol: Reaction mixtures containing 50 mM Tris-HCl, pH 7.5, 5 mM MgCl2, 500 µM DTT, 3 µM of γ-^32P-radiolabeled 5′-triphosphate RNA substrate (32 nt), 0.1 µM HCE, and various concentration of MZP (as indicated) were incubated for 10 min at 37°C. The reactions were stopped by the addition of 2 µl of 5 M formic acid. Aliquots of each sample were analyzed on polyethyleneimine-cellulose thin-layer chromatography (TLC) plate, and developed with 0.5 M LiCl and 1 M formic acid. The release of ^32Pi was quantified by scanning the TLC plates with a PhosphorImager.
We next investigated the susceptibility of the RTase domain of HCE to MZP inhibition. To specifically monitor the effect of MZP on the RTase activity, a γ-^32P-radiolabeled 5′-triphosphate RNA was incubated with HCE and magnesium. RTase activity was monitored through the analysis of the ^32Pi product released from the radiolabeled RNA by TLC and autoradiography.

[7] = test system: HCE-G229–597 (GTase domain of HCE); assay: Complete GTase reaction with isolated GTase domain; type: biochemical, human
[8] = target: T5, Ceg1 (Saccharomyces cerevisiae, UniProt Q01159); assay: Enzyme-GMP (EpG) complex formation, yeast GTase; type: biochemical; conditions: GTase first step, compared with other GTases
T5 sequence (Q01159 1-459): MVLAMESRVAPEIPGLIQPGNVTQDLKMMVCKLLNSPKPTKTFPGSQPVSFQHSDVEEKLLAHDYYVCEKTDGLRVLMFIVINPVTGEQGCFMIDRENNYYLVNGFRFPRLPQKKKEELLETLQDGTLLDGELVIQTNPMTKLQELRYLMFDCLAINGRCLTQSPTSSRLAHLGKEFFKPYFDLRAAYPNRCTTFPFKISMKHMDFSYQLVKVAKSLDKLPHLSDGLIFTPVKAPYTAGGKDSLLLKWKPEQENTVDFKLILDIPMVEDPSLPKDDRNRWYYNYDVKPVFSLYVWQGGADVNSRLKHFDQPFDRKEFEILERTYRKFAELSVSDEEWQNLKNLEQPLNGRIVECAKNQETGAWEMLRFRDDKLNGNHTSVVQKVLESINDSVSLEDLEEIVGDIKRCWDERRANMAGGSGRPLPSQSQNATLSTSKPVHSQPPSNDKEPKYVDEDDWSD

[9] = target: T6, human RNA capping enzyme (HCE) (Homo sapiens, UniProt O60942); assay: Complete RNA capping reaction (RTase+GTase) of a 5′-triphosphate RNA; type: biochemical
T6 construct: full-length bifunctional HCE protein (amino acid 1–597); 6-His (N); made in house; host or cells: Escherichia coli BL21(DE3), pET28a
T6 sequence (O60942 whole entry): as the sequence (O60942 whole entry) above
Protocol: Reaction mixtures containing 5 µM [α-^32P]GTP, 5 µM of 5′-triphosphate RNA, 0.1 µM HCE, 50 mM Tris-HCl, pH 7.5, 5 mM MgCl2, 500 µM DTT, 0.5 ng/µl pyrophosphatase (Roche), and 1 U of RNAse Out (Invitrogen) were incubated for 15 min at 37°C. Reactions were stopped by the addition of 20 µl of phenol-chloroform. 10 µl of loading dye (97% formamide) was added to the aqueous phase and submitted to electrophoresis on a denaturing 10% polyacrylamide gel. Formation of the ^32P-radiolabeled GpppRNA was quantified with a PhosphorImager.
In order to investigate if MZP could inhibit the RNA capping reaction, we initially addressed its impact on the complete RNA capping reaction (RTase+GTase). A cold 5′-triphosphate RNA was incubated in the presence of HCE, [α-^32P]GTP, magnesium and increasing concentrations of MZP. […] To ensure that the inhibition by MZP was specific, the reaction was performed in the presence of increasing concentrations of GMP which is chemically related to MZP.

[10] = target: T5, Ceg1; assay: Complete GTase reaction, yeast GTase; type: biochemical; conditions: 0,5 µM Ceg1
[11] = target: T1, HCE; assay: GMP transfer on a 5′-diphosphate RNA, second GTase step; type: biochemical; conditions: single turnover
Protocol: Formation of the enzyme-GMP complex was initially performed for 15 min at 37°C in a buffer containing 1.5 µM [α-^32P]GTP, 1 µM HCE, 70 mM Tris-HCl, pH 7.5, 7.5 mM MgCl2, 70 µM DTT, 0.7 ng/µl pyrophosphatase (Roche), and 1 U of RNAse Out (Invitrogen). The transfer reaction was then initiated by adding a 5′-diphosphate RNA (32 nt) to a final concentration of 0.5 µM with various concentration of MZP (as indicated). After 30 sec at 37°C, the transfer reaction was stopped by the addition of 20 µl of phenol-chloroform. 10 µl of loading dye (97% formamide) was added to the aqueous phase and submitted to electrophoresis on a denaturing 10% polyacrylamide gel. The formation of the ^32P-radiolabeled GpppRNA was quantified with a PhosphorImager.
We next investigated if the second step of the GTase reaction could be impaired by MZP. EpG complex formation was allowed to initially form upon incubation of HCE with excess [α-^32P]GTP, magnesium and pyrophosphatase. Next, various concentrations of MZP and a cold 5′-diphosphate RNA were added to initiate the transfer of the [α-^32P]GMP moiety onto the RNA in single turnover condition.

[12] = target: T3, D1R; assay: Enzyme-GMP (EpG) complex formation, vaccinia virus GTase; type: biochemical
[13] = target: T2, A103R; type: biochemical, Chlorella virus (PBCV-1); remark: listed apart in the source
[14] = test system: HCE GTase activity; assay: Complete two-step RNA guanylyltransferase (GTase) reaction on 5′-diphosphate RNA; type: biochemical, human; conditions: complete GTase reaction; HCE vs D1R, A103R, Ceg1
[15] = target: T7, HCE GTase activity (Homo sapiens, UniProt O60942); assay: as above; type: biochemical
T7 construct: full-length bifunctional HCE protein (amino acid 1–597); 6-His (N); made in house; host or cells: Escherichia coli BL21(DE3), pET28a
T7 sequence (O60942 whole entry): as the sequence (O60942 whole entry) above

[16] = target: T1, HCE; assay: Enzyme-GMP (EpG) complex formation, first GTase step; type: biochemical
Protocol: The enzyme-GMP complex formation assays were carried out for 3 min at 37°C in a buffer containing 1 µM [α-^32P]GTP, 4 µM HCE, 50 mM Tris-HCl, pH 7.5, 5 mM MgCl2, 500 µM DTT, 0.5 ng/µl pyrophosphatase (Roche), and various concentration of MZP (as indicated). The reactions were stopped by the addition of 5 µl of loading dye (50 mM EDTA, 2% β-mercaptoethanol, 1% SDS) and analyzed on a 12% polyacrylamide gel containing 0.1% SDS. The formation of the radiolabeled HCE-[α-^32P]GMP covalent complex was quantified with a PhosphorImager. Similar experiments were conducted using only the GTase domain of HCE (HCE-G229–597). Alternatively, equimolar concentrations of MgCl2 to MZP were added to the reaction in addition to the base 5 mM MgCl2 from the buffer (MZP✯Mg^2+).
We next set out to identify which step (if any) of the GTase reaction is more susceptible to MZP inhibition. In order to investigate the inhibitory potency of MZP on HCE-GMP complex formation (first step), HCE was incubated with [α-^32P]GTP, magnesium and increasing concentrations MZP. […] The formation of the EpG covalent complex in single turnover condition was analyzed by SDS-PAGE and quantified by phosphorimaging. […] Nevertheless, MZP inhibition of the EpG complex formation is weak and could not be solely responsible for the global inhibitory potency of MZP.

NC(=O)c1ncn([C@@H]2O[C@H](CO)[C@@H](O)[C@H]2O)c1O [mizoribine]
effect on reporter protein expression [1]: global reduction in protein expression
binding to serum proteins [2]: 2.3%

NC(=O)c1ncn([C@@H]2O[C@H](COP(=O)(O)O)[C@@H](O)[C@H]2O)c1O [MZP, Mizoribine monophosphate]
use as substrate and transfer onto acceptor RNA [3]: not able to use the MZP as a substrate
IC50 [4]: 750 µM
IC50 [5]: 500 µM
effect on RTase activity [6]: does not affect
decrease in potency versus full-length HCE [7]: 10 fold
inhibition of EpG formation [8]: slightly less affected
IC50 ([9]; 0.1 µM HCE, 5 µM GTP, 5 µM 5′-triphosphate RNA, 5 mM MgCl2, 15 min 37°C): 150 µM
IC50 [10]: > 2000 µM
impact on GMP transfer to acceptor RNA (second GTase step) [11]: only has a minor impact
IC50 [12]: 3000 µM
IC50 [13]: 2000 µM
difference in susceptibility, HCE versus other GTases [14]: 5-to 25 fold
mechanism of inhibition, complete GTase reaction ([15]; Lineweaver-Burk, Km for GTP independent of MZP concentration): non-competitive
IC50 ([15]; steady-state, 5′-diphosphate RNA, full-length HCE): 80 µM
mechanism of inhibition, EpG formation ([16]; Lineweaver-Burk, maximal velocity unaffected by MZP): competitive
IC50 ([16]; single turnover, 4 µM HCE, 1 µM GTP, 3 min 37°C): 3000 µM

Nc1nc2c(ncn2[C@@H]2O[C@H](COP(=O)(O)O)[C@@H](O)[C@H]2O)c(=O)[nH]1 [GMP]
reduction of RNA capping ([9]; GMP concentrations as high as 10 mM): ≤ 25%
